According to patent publication US9624520B2, “Biosynthetically generated pyrroline-carboxy-lysine and site specific protein modifications via chemical derivatization of pyrroline-carboxy-lysine and pyrrolysine residues” (Novartis AG, priority 2008, dated 2017):
“Also recorded” adds a separate entry of the source. Where a name gives a salt, the structure may show the parent alone.

Key:
[1] = test system: HK100 cells; experiment: Incorporation of other analogues and precursors into FAS-TE L2222TAG (Ni-NTA, SDS-PAGE, Bradford); assay type: cell-based, Escherichia coli; conditions: for full-length protein production / PCL biosynthesis from precursor: Escherichia coli cells with pylB/pylC/pylD/pylS/pylT; for Bradford: 25 ml culture
[2] = pH 5
[3] = target: T1, pylS tRNA synthetase (Methanosarcina mazei, UniProt Q8PWY1); experiment: Incorporation test with synthetic pyrrolysine analogues (full-length hRBP4 mutant #6); assay type: cell-based; conditions: 2 or 5 mM analogue, HEK293F cells with pylT/pylS only, Western blot and SDS-PAGE
T1 construct: expressed in transfected cells; host or cells: HEK293F
T1 sequence (Q8PWY1 whole entry): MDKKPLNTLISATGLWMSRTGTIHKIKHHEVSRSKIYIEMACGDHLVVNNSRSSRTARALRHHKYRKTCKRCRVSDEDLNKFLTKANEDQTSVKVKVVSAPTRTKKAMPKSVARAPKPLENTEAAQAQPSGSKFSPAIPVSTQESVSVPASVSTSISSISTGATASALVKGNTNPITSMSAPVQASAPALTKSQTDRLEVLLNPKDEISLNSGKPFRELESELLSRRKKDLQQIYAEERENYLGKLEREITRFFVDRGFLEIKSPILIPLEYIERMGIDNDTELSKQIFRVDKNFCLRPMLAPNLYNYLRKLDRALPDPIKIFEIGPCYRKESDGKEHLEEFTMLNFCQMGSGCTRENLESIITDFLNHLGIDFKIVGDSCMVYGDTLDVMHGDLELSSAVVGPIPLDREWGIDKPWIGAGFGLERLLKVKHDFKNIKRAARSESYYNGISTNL
Method: In parallel to the above experiment, the production of full-length hRBP4 Phe122PCL protein (mutant #6) was also measured in the presence of a series of synthetic pyrrolysine analogues designed with an acetyl moiety for chemical derivatization after protein incorporation (FIG. 14B). The synthetic analogues were prepared as described in Example 19. pRSRBP was co-transfected into HEK293F cells with pCMVpyS which supplies one gene copy of pylT tRNA and of pylS tRNA synthetase. Depending on solubility, the synthetic analogues were added to the media either at 2 or 5 mM final concentration.

[4] = test system: HEK293F cells; experiment: Incorporation test with putative PCL and pyrrolysine precursors (full-length hRBP4 Phe122PCL); assay type: cell-based, human; conditions: 5 mM precursor; HEK293F cells with pylT, pylS, pylB, pylC, pylD; Western blot and SDS-PAGE of Ni-NTA purified samples
Method: The production of full-length hRBP4 Phe122PCL protein (mutant #6) was measured in the presence of the putative PCL precursor D-ornithine, D-proline, D-arginine, D-glutamic acid, 4-hydroxyl-D-proline and 2-pyrrolidone-5-carboxylic acid (FIGS. 13A and B, FIG. 14A). pRSRBP was co-transfected into HEK293F cells with pCMVpyS, pCMVpyB, pCMVpyC and pCMVpyD and cells were grown in the presence of 5 mM of the putative precursor (FIG. 14A) as described in Example 2.

[5] = test system: PylD; experiment: NMR evaluation of Lys-Nε-D-Orn as substrate for PylD; assay type: biochemical, Methanosarcina mazei
[6] = Compound stability (degradation measured by nuclear magnetic resonance spectroscopy); assay type: physicochemical
[7] = purified FAS-TE from HK100 cells with pylB/pylC/pylD/pylS/pylT (lanes 5-11)

O=C(O)C1CCC=N1 (racemic) [P5C, Ammonium DL-1-pyrroline-5-carboxylate]
full-length protein production / PCL biosynthesis from precursor [1]: failed to produce full-length protein; also recorded: not sufficient to support PCL biosynthesis
Bradford [1, 7]: 0.075 mg/25 ml

N[C@@H](CCCCNC(=O)C1CCC=N1)C(=O)O (mixture of isomers) [PCL-A, (S)-2-amino-6-(3,4-dihydro-2H-pyrrole-2-carboxamido) hexanoic acid]
incorporation into protein (full-length FAS-TE) ([1]; Escherichia coli cells with only pylS and pylT genes): incorporated with high efficiency; also recorded: incorporated into proteins
Bradford ([1]; purified FAS-TE from HK100 cells with pylS/pylT genes only (lanes 1-4)): 0.539 mg/25 ml

Nc1ccc([N+](=O)[O-])cc1C(=O)c1ccccc1 [2-ANBP, 2-amino-5-nitro-benzophenone]
solubility [2]: low solubility

N[C@@H](CCCCNC(=O)OC1CCCC1)C(=O)O [CYC, N-ε-cyclopentyloxycarbonyl-L-lysine, reference compound]
production of full-length hRBP4 (mutant #6) in the presence of synthetic pyrrolysine analogue [3]: protein production to a level similar to D-ornithine; also recorded: measurable protein band

N=C(N)NCCC[C@@H](N)C(=O)O [D-arginine]
production of full-length hRBP4 Phe122PCL protein in the presence of putative precursor [4]: above background protein production

N[C@H](CCC(=O)O)C(=O)O [D-glutamic acid]
production of full-length hRBP4 Phe122PCL protein in the presence of putative precursor [4]: did not result in full-length protein production above background

NCCC[C@@H](N)C(=O)O [D-ornithine]
production of full-length hRBP4 Phe122PCL protein in the presence of putative precursor [4]: measurable protein band

O=C(O)[C@H]1CCCN1 [D-proline]
production of full-length hRBP4 Phe122PCL protein in the presence of putative precursor [4]: did not result in full-length protein production above background

NCCC[C@@H](N)C(=O)NCCCC[C@H](N)C(=O)O [Lys-Nε-D-ornithine, (2S)-2-amino-6-((R)-2,5-diaminopentanamido)hexanoic acid]
full-length protein production / PCL biosynthesis from precursor ([1]; listed as Lys-Nε-D-Orn): resulted in protein expression with PCL incorporated at the amber codon
full-length protein production / PCL biosynthesis from precursor ([1]; listed as Lys-Nε-D-orn): substantial amounts of full-length protein
Bradford [1, 7]: 1.66 mg/25 ml
substrate for PylD [5]: substrate for PylD

O=C(O)C1=NCCC1 [P2C, 3,4-dihydro-2H-pyrrole-5-carboxylate]
full-length protein production / PCL biosynthesis from precursor [1]: failed to produce full-length protein; also recorded: not sufficient to support PCL biosynthesis
Bradford [1, 7]: 0.103 mg/25 ml

CC(=O)CC(=O)NCCCC[C@H](N)C(=O)O [TU3000-016, (S)-2-amino-6-(3-oxobutanamido)hexanoic acid hydrochloride]
production of full-length hRBP4 (mutant #6) in the presence of synthetic pyrrolysine analogue ([3]; hydrochloride): measurable but much lower incorporation; also recorded: viable substrate for the pylS tRNA synthetase
compound stability [6]: not stable
